How the values were obtained:
[1] = system: keratinocyte-melanocyte co-cultures; experiment: Induced pigmentation in keratinocyte-melanocyte co-cultures, DOPA staining and computerized image analysis; assay type: cell-based, Human
Experimental: The peptides Peptide 1 and Peptide 2 and various pigments were tested, alone or in combination, with keratinocyte-melanocyte cultures for their effect on cell pigmentation, using DOPA staining and computerized image analysis. The pigments that were tested were the pigmented natural extract Hedychium spicatum extract sold as Kapur Kachali from Amsar Private Limited (Indore, India), copper chloride from Sigma (St. Louis, Mo.) and the water-soluble melanin derivatives Melasyn-100™ from San-mar laboratories, Inc. (Elmsford, N.Y.) and MelanZe™ from Zylepsis (Ashford, Kent, United Kingdom). The pigments were tested at concentrations ranging from 0.0001%(W/V) to 1%(W/V) and peptides were tested at 50 μM.
The assay was conducted in the following manner. Human HaCaT keratinocytes (Boukamp P., et al., J Cell Biol 106, 3, 761-771 (1988)) were maintained in Dulbecco's Modified Eagle's Medium (DMEM) containing 10% fetal bovine serum (FBS), 4.5 mg/ml glucose, 2 mM L-glutamine, 50 U/ml penicillin and 50 μg/ml streptomycin (Life Technologies, Gaithersburg, Md.). Cells were maintained at <80% confluency in 5% CO2 (v/v) and were used in experimental procedures up to culture passage 15. Human primary melanocytes (Clonetics, San Diego, Calif. or Cascade Biologics, Portland, Oreg.) were maintained according to manufacturer's instructions. To establish keratinocyte-melanocyte co-cultures, 6×10^4 melanocytes were plated in each well of a 24 well plate and maintained according to manufacturer's instructions.
Melanocytes were rinsed three times with melanocyte growth media without PMA and keratinocytes (6×10^4) were plated to establish the co-cultures in this media. Co-cultures were treated for three days with test peptides and pigments, and assayed for cell viability and pigment level on the forth day. Cell viability was assayed using alamarBlue™ (Acumed International, West Lake, Ohio) following manufacturer's instructions. No change in viability was observed following three daily treatments with all tested material. All in vitro experiments were performed in triplicates, and were repeated at least three times.
Following three daily treatments, the co-cultures were briefly fixed (10% buffered formalin from Fisher Scientific, 15 minutes), washed three times with Phosphate-buffered saline (PBS, from Life Technologies) and stained with L-3,4-Dihydroxyphenylalanine (DOPA, from Sigma, St. Louis, Mo.) 0.1% in PBS, for 5 hours at 37° C., followed by two PBS washes and formalin (10%, overnight) fixation. DOPA is a substrate for tyrosinase, therefore an increase in staining represents increased tyrosinase activity and pigment production. DOPA-stained monolayers were used for image analysis. All images were obtained and analyzed with Image Pro Plus 3.0 software (Media Cybernetics, Silver Spring, Md.). Parameters measured were surface area of stained material within melanocyte and keratinocytes and the total surface area of the cells in the culture, and the relative pigmented area was calculated. A value of 100% was assigned to untreated controls, and values of treatment groups were normalized to their relevant controls. In all experiments there was no difference between PBS-treated cells and untreated controls. Data are presented with standard deviation (SigmaPlot® 5.0, SPSS Science, Chicago, Ill.).
Forskolin (Sigma, St. Louis, Mo.), a known inducer of pigmentation, served as a positive control and a reference point. Forskolin was administered at 1% (W/V).

[2] = system: Dark skinned Yucatan microswine; experiment: Induced pigmentation in vivo, F&M-stained histological skin sections scored for pigment deposition; parameters: key: −1: slight lightening; 0: No change; 1: Minimal increase in pigment deposition; 2: Increased pigment deposition; 3: Strong increase in pigment deposition, some increase in caps; 4: Strong increase in pigment deposition, strong increase in caps; settings: topical twice a day, five days/week, eight or nine weeks, average of all sites of responsive swine
Experimental: Compositions of the present invention were tested for their ability to induce in vivo pigmentation in skin cells in the following experiment. Dark skinned Yucatan microswine (Charles River, Portland, Me.) were housed in appropriately sized cages in an environmentally controlled room with a 12-hour light-12-hour dark photoperiod and supplied with food and water ad libitum. Animal care was based on the “Guide for the Care and Use of Laboratory Animals”, NIH Publication No. 85-23. Twenty μl of test peptides were applied topically, twice a day, five days/week, for eight or nine weeks, on the dorsum of the swine. Treatments of individual swine were always arranged in a head to tail order on one side, and in a tail to head order on the other side of the animal. Biopsies were taken using standard techniques.
Sections from the skin biopsies were stained with Hematoxylin and Eosin (H&E), or with Fontana-Mason (F&M), using standard procedures (Sheenan DC, Hrapckak BB, eds., Theory and Practice of Histo-technology. p. 223, 277, The C. V. Mosby Co., St. Louis (1980)). F&M staining identifies silver nitrate reducing molecules. In skin, this non-specific stain identifies primarily melanin. At least three sections per biopsy were processed. […]
F&M-stained histological skin sections were evaluated for the change in pigment deposition within the treated site. […]

[3] = Table 1, 50 μM, three daily treatments, relative pigmented area after DOPA staining, control 0.184
[4] = Table 1, 50 μM, three daily treatments, versus control

Compound: H2-Leu-Ile-Gly-Arg-NH2 (H-LIGR-NH2) [Peptide 1]
- Mean area [1, 3]: 0.270
- % increase [1, 4]: 46.8%
- % increase ([1]; Table 2, Peptide 1 50 μM, normalized to control): 279%
- Mean area ([1]; Table 2, Peptide 1 50 μM, three daily treatments, control 0.029): 0.080
- Score (pigment deposition) ([2]; peptide at 250 μM or 500 μM): 2

Compound: H2-Leu-Ile-Gly-Arg-Leu-NH2 (H-LIGRL-NH2) [Peptide 2]
- Mean area [1, 3]: 0.240
- % increase [1, 4]: 30.8%

Compound: [Cl][Cu][Cl] [CuCl2, copper chloride, reference compound]
- Mean area ([1]; Table 2, CuCl2 0.001% (w/v), control 0.029): 0.063
- % increase ([1]; Table 2, CuCl2 0.001% (w/v), normalized to control): 220%

Compound: C=C[C@@]1(C)CC(=O)[C@]2(O)[C@@]3(C)[C@@H](O)CCC(C)(C)[C@@H]3[C@H](O)[C@H](OC(C)=O)[C@@]2(C)O1 [Forskolin, reference compound]
- Mean area ([1]; Table 2, Forskolin 1% (w/v), positive control, control 0.029): 0.067
- % increase ([1]; Table 2, Forskolin 1% (w/v), positive control, normalized to control): 231.0%
- Score (pigment deposition) ([2]; positive control at 1% (W/V)): 1

— patent publication US20030138388A1, “Peptides and the use thereof in darkening the skin” (priority 2001, published 2003)
